# Test results published in article PMC9823088, “The oral selective estrogen receptor degrader GDC-0810 (ARN-810) in postmenopausal women with hormone receptor-positive HER2-negative (HR + /HER2 −) advanced/metastatic breast cancer” (Breast Cancer Research and Treatment, 2022).
# Columns and labels:
# CYP2B6 = tested on: CYP2B6; parameters: method as in printed; details: stated as reason for dose adjustments; ref not given; cited from earlier work
# [1] = tested on: ER + (HER2 −) locally advanced or metastatic breast cancer; assay: Anti-tumor activity per RECIST v1.1 (best confirmed overall outcome, clinical benefit rate, progression-free survival), phase Ia/Ib/IIa study; format: in vivo, human
# From the text: This was a multi-institutional phase Ia/Ib/IIa, open-label, dose finding, safety, pharmacokinetics, and proof-of-concept study of GDC-0810 in women with ER + metastatic breast cancer. Phase Ia employed a standard 3 + 3 dose-escalation scheme. Phase Ib was dose escalation as part of combination treatment. Phase IIa explored the recommended phase 2 dose (RP2D) from phase Ia. The protocol was approved by institutional review boards (IRBs) at participating institutions. Written informed consent was obtained from patients prior to performing any procedures; the study was conducted in accordance with the principles of the Declaration of Helsinki and Good Clinical Practice.
# Blood samples were collected for pharmacokinetic assessments. Tumor assessments were performed at screening and every 8 weeks from cycle 1, day 1 (C1D1). Radiographic assessment of objective tumor response or disease progression was based on Response Evaluation Criteria in Solid Tumors (RECIST v1.1). Transvaginal ultrasound scans were performed to monitor endometrial thickness at screening, at every 6 months from C1D1, and at the end of treatment. Imaging with [^18F]-fluoroestradiol positron emission tomography (FES-PET) was performed to quantify ER expression in tumors and to assess for pharmacodynamic response. Further assessment details are provided in Supplementary Methods.
# Analyses of safety, pharmacokinetics, anti-tumor activity, and data from the FES-PET imaging correlative studies were planned. Confirmatory inferential analyses and imputation for missing data were not planned due to the exploratory nature of this study. Descriptive statistics were used to summarize patient data. The number of patients to be enrolled was dependent upon the observed safety and pharmacokinetic profile during dose escalations. The safety- and efficacy-evaluable population included patients who received at least one dose of the study drug. Safety was assessed through summaries of DLTs, AEs, changes in select laboratory test results, vital signs, ECGs, and changes in endometrial thickness. Objective response (with confirmation) and clinical benefit rates (CBR) were derived per RECIST v1.1 and summarized by dose level and cohort.
# CYP2B6 and CYP2C enzymes. No hormonal therapy, chemotherapy, immunotherapy, or experimental anti-cancer medications were permitted during the study. […]
# Tumor assessments were performed at screening and every 8 weeks from cycle-1, day-1 (C1D1). Radiographic assessment of objective tumor response or disease progression was based on Response Evaluation Criteria in Solid Tumors (RECIST v1.1). Transvaginal ultrasound scans were performed to monitor endometrial thickness at screening, at every 6 months from C1D1, and at the end of treatment. […]
# [2] = all patients, phase IIa A1, 600 mg QD, n = 19
# [3] = all patients, phase IIa A2, 600 mg QD, n = 10
# [4] = all patients, phase IIa B1, 600 mg QD, n = 53
# [5] = all patients, phase IIa B2, 600 mg QD, n = 19
# [6] = all patients, phase Ia cohorts 1–9, 100–800-mg BID, 300–400-mg QD, n = 41
# [7] = all patients, phase Ib C1, 400 mg QD + PALBO, n = 4
# [8] = all patients, phase Ib D1, 600 mg QD + LHRH-A, n = 6
# [9] = overall, 3 study phases (152 patients)
# [10] = patients (n = 77) with tumors harboring ESR1 mutations
# [11] = patients with tumors harboring ESR1 mutations
# [12] = tumors harboring ESR1 mutations, phase IIa A1, 600 mg QD, n = 19
# [13] = tumors harboring ESR1 mutations, phase IIa A2, 600 mg QD, n = 9
# [14] = tumors harboring ESR1 mutations, phase IIa B1, 600 mg QD, n = 20
# [15] = tumors harboring ESR1 mutations, phase IIa B2, 600 mg QD, n = 4
# [16] = tumors harboring ESR1 mutations, phase Ia cohorts 1–9, 100–800-mg BID, 300–400-mg QD, n = 23
# [17] = tumors harboring ESR1 mutations, phase Ib D1, 600 mg QD + LHRH-A, n = 2
structure (smiles),measurement,setting,value
CC/C(=C(/c1ccc(/C=C/C(=O)O)cc1)c1ccc2[nH]ncc2c1)c1ccc(F)cc1Cl [GDC-0810],effects on CYP2B6,CYP2B6,inhibitory effects
same,CBR,[1]; 17 patients in phase Ia previously treated with fulvestrant,35%
same,median time to event (median PFS),[1]; 54 patients in study phases Ib/IIa with tumors harboring ESR1 mutations,3.5 months
same,median time to event (median PFS),[1]; 111 patients in study phases Ib/IIa,3.5 months
same,Missing or unevaluable,[1]; [2],1 (5%) n (%)
same,Non-complete response/non-progressive disease,[1]; [2],5 (26%) n (%)
same,Partial response,[1]; [2],0 n (%)
same,Progressive disease,[1]; [2],9 (47%) n (%)
same,Stable disease,[1]; [2],4 (21%) n (%)
same,Missing or unevaluable,[1]; [3],2 (20%) n (%)
same,Non-complete response/non-progressive disease,[1]; [3],0 n (%)
same,Partial response,[1]; [3],0 n (%)
same,Progressive disease,[1]; [3],4 (40%) n (%)
same,Stable disease,[1]; [3],4 (40%) n (%)
same,Missing or unevaluable,[1]; [4],3 (6%) n (%)
same,Non-complete response/non-progressive disease,[1]; [4],8 (15%) n (%)
same,Partial response,[1]; [4],4 (8%) n (%)
same,Progressive disease,[1]; [4],21 (40%) n (%)
same,Stable disease,[1]; [4],17 (32%) n (%)
same,Missing or unevaluable,[1]; [5],0 n (%)
same,Non-complete response/non-progressive disease,[1]; [5],4 (21%) n (%)
same,Partial response,[1]; [5],0 n (%)
same,Progressive disease,[1]; [5],11 (58%) n (%)
same,Stable disease,[1]; [5],4 (21%) n (%)
same,Non-complete response/non-progressive disease,[1]; [6],0 n (%)
same,Partial response,[1]; [6],2 (5%) n (%)
same,Progressive disease,[1]; [6],12 (29%) n (%)
same,Stable disease,[1]; [6],26 (63%) n (%)
same,Missing or unevaluable,[1]; [7],0 n (%)
same,Non-complete response/non-progressive disease,[1]; [7],1 (25%) n (%)
same,Partial response,[1]; [7],0 n (%)
same,Progressive disease,[1]; [7],1 (25%) n (%)
same,Stable disease,[1]; [7],2 (50%) n (%)
same,Missing or unevaluable,[1]; [8],0 n (%)
same,Non-complete response/non-progressive disease,[1]; [8],1 (17%) n (%)
same,Partial response,[1]; [8],0 n (%)
same,Progressive disease,[1]; [8],3 (50%) n (%)
same,Stable disease,[1]; [8],2 (33%) n (%)
same,Progressive disease,[1]; overall population,40%
same,Stable disease,[1]; overall population,39%
same,missing/unevaluable,[1]; overall population,5%
same,non-complete response/non-progressive disease,[1]; overall population,13%
same,partial responses,[1]; overall population,4%
same,Progressive disease,[1]; [9],61 (40%) n (%)
same,Stable disease,[1]; [9],59 (39%) n (%)
same,non-complete response/non-progressive disease,[1]; [9],19 (13%) n (%)
same,partial responses,[1]; [9],6 (4%) n (%)
same,CBR,"[1]; overall, 3 study phases, n = 40",26%
same,Progressive disease,[1]; [10],29 (38%) n (%)
same,Stable disease,[1]; [10],32 (42%) n (%)
same,missing/unevaluable,[1]; [10],4 (5%) n (%)
same,non-complete response/non-progressive disease,[1]; [10],9 (12%) n (%)
same,partial responses,[1]; [10],3 (4%) n (%)
same,Progressive disease,[1]; [11],38%
same,Stable disease,[1]; [11],42%
same,missing/unevaluable,[1]; [11],5%
same,non-complete response/non-progressive disease,[1]; [11],12%
same,partial responses,[1]; [11],4%
same,CBR (responses or SD lasting ≥ 24 weeks),"[1]; phase Ia dose escalation, 16 patients",39%
same,Missing or unevaluable,[1]; phases Ib and IIa (n = 111),6 (5%) n (%)
same,"PD, best confirmed overall outcome",[1]; phases Ib and IIa (n = 111),49 (44%) n (%)
same,non-complete response or non-progressive disease (non CR/PD),[1]; phases Ib and IIa (n = 111),19 (17%) n (%)
same,CBR,"[1]; phases Ib combination treatments and IIa expansion cohorts (n = 111), n = 24",22%
same,CBR,"[1]; tumors harboring ESR1 mutations, phase Ib/IIa (8 of 54 patients)",15%
same,Missing or unevaluable,[1]; [12],1 (5%) n (%)
same,Non-complete response/non-progressive disease,[1]; [12],5 (26%) n (%)
same,Partial response,[1]; [12],0 n (%)
same,Progressive disease,[1]; [12],9 (47%) n (%)
same,Stable disease,[1]; [12],4 (21%) n (%)
same,Missing or unevaluable,[1]; [13],2 (22%) n (%)
same,Non-complete response/non-progressive disease,[1]; [13],0 n (%)
same,Partial response,[1]; [13],0 n (%)
same,Progressive disease,[1]; [13],4 (44%) n (%)
same,Stable disease,[1]; [13],3 (33%) n (%)
same,Missing or unevaluable,[1]; [14],1 (5%) n (%)
same,Non-complete response/non-progressive disease,[1]; [14],3 (15%) n (%)
same,Partial response,[1]; [14],1 (5%) n (%)
same,Progressive disease,[1]; [14],7 (35%) n (%)
same,Stable disease,[1]; [14],8 (40%) n (%)
same,Missing or unevaluable,[1]; [15],0 n (%)
same,Non-complete response/non-progressive disease,[1]; [15],1 (25%) n (%)
same,Partial response,[1]; [15],0 n (%)
same,Progressive disease,[1]; [15],2 (50%) n (%)
same,Stable disease,[1]; [15],1 (25%) n (%)
same,Missing or unevaluable,[1]; [16],0 n (%)
same,Non-complete response/non-progressive disease,[1]; [16],0 n (%)
same,Partial response,[1]; [16],2 (9%) n (%)
same,Progressive disease,[1]; [16],6 (26%) n (%)
same,Stable disease,[1]; [16],15 (65%) n (%)
same,Missing or unevaluable,[1]; [17],0 n (%)
same,Non-complete response/non-progressive disease,[1]; [17],0 n (%)
same,Partial response,[1]; [17],0 n (%)
same,Progressive disease,[1]; [17],1 (50%) n (%)
same,Stable disease,[1]; [17],1 (50%) n (%)
